Assay results from patent publication US20080207560A1, “Composition For External Use” (priority 2005, published 2008).

Test: Solubility in phosphate buffer (statement)
Assay type: physicochemical

SMILES: CC1=C(/C=C/C(C)=C/C=C/C(C)=C/C(=O)Oc2cc(C)c3c(c2)CC[C@@](C)(CCC[C@H](C)CCC[C@H](C)CCCC(C)C)O3)C(C)(C)CCC1 [d-δ-tocopheryl retinoate]
- solubility in phosphate buffer: sparingly soluble
